From US20260022142A1, “MACROCYCLIC IMMUNOMODULATORS” (Bristol-Myers Squibb Company, priority 2022, published 2026)
Bridge positions count the residues as written; N and C are the ends. Square brackets hold non-standard residues; d marks the D form. Peptide text beside a SMILES is read from it. * marks the point of attachment. Phe(3-CF3) = N[C@@H](Cc1cccc(C(F)(F)F)c1)C(=O)O; Ala(morpholin-4-yl) = N[C@@H](CN1CCOCC1)C(=O)O; Phe(4-CONH2) = NC(=O)c1ccc(C[C@H](N)C(=O)O)cc1; Phe(4-COOH) = N[C@@H](Cc1ccc(C(=O)O)cc1)C(=O)O; Bip = N[C@@H](Cc1ccc(-c2ccccc2)cc1)C(=O)O; NH(CH2)14COOH = O=C(O)CCCCCCCCCCCCCCN*; Phe(3-Me) = Cc1cccc(C[C@H](N)C(=O)O)c1; NH(CH2)12COOH = O=C(O)CCCCCCCCCCCCN*; Val(3-OH) = CC(C)(O)[C@H](N)C(=O)O; 4Pal = N[C@@H](Cc1ccncc1)C(=O)O; Cha = N[C@@H](CC1CCCCC1)C(=O)O; PEG4 = NCCOCCOCCOCCOCCC(=O)O; Carboxymethyl = O=C(O)C*; Orn = NCCC[C@H](N)C(=O)O; Aun = NCCCCCCCCCCC(=O)O; Dab = NCC[C@H](N)C(=O)O; Abu = CC[C@H](N)C(=O)O; AEEA = NCCOCCOCC(=O)O

Biological target: T1, PD-1/PD-L1 interaction (PE-labeled human PD-L1-Ig binding to Jurkat cell line over-expressing human PD-1) (Homo sapiens, UniProt Q15116)
T1 construct: expressed in transfected cells; host or cells: Jurkat
Experiment: Jurkat-PD-1 Cell Binding High-Content Screening Assay (CBA)
Type: cell-based
Settings: Jurkat cell line over-expressing human PD-1; PE-labeled PD-L1-Ig 20 nM final; read-out: Jurkat hPD1-PDL1 IC50
Procedure, shortened: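 Binding of fluorescent PD-L1-Ig (20 nM final) to Jurkat-PD-1 cells was measured by automated imaging after 1 h, following a 2 h compound pre-treatment at 37° C.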

T1 sequence (Q15116 25-288): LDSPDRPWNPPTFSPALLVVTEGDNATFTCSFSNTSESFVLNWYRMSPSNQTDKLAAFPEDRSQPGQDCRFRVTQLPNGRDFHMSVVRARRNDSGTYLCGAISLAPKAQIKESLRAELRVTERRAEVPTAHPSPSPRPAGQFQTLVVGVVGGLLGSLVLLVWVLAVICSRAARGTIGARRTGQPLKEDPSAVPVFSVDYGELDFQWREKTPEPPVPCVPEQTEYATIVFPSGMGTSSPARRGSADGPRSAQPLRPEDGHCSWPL

IC50 [nM]	SMILES
25.3	CC(C)C[C@H]1NC(=O)[C@H](CCCN)NC(=O)[C@H](Cc2ccc(C(=O)O)cc2)NC(=O)[C@H](Cc2ccc(-c3ccccc3)cc2)NC(=O)[C@H](Cc2ccc(C(=O)O)cc2)NC(=O)[C@H](Cc2cccc(C(F)(F)F)c2)NC(=O)[C@H](CC(=O)O)NC(=O)[C@H](Cc2ccc(OCC(=O)O)cc2)NC(=O)[C@H](CN2CCOCC2)NC(=O)CSC[C@@H](C(=O)N[C@@H](CCN)C(=O)NCCOCCOCCOCCOCCC(=O)NCCCCCCCCCCCCC(=O)O)NC(=O)[C@H](CO)NC(=O)[C@H](C(C)(C)O)NC(=O)[C@H](CC2CCCCC2)NC(=O)[C@H](CCN)NC1=O [Compound 2916] ({CH2CO}-[Ala(morpholin-4-yl)]Y(Carboxymethyl)D[Phe(3-CF3)][Phe(4-COOH)][Bip][Phe(4-COOH)][Orn][dL][Dab][Cha][Val(3-OH)]SC[Dab][PEG4]-{NH(CH2)12COOH}; thioether N-14)
135	CC(C)C[C@H]1NC(=O)[C@H](CCCN)NC(=O)[C@H](Cc2ccc(C(=O)O)cc2)NC(=O)[C@H](Cc2ccc(-c3ccccc3)cc2)NC(=O)[C@H](Cc2ccc(C(=O)O)cc2)NC(=O)[C@H](Cc2cccc(C(F)(F)F)c2)NC(=O)[C@H](CC(=O)O)NC(=O)[C@H](Cc2ccc(OCC(=O)O)cc2)NC(=O)[C@H](CN2CCOCC2)NC(=O)CSC[C@@H](C(=O)N[C@@H](CCN)C(=O)NCCOCCOCCOCCOCCC(=O)NCCCCCCCCCCCCCCC(=O)O)NC(=O)[C@H](CO)NC(=O)[C@H](C(C)(C)O)NC(=O)[C@H](CC2CCCCC2)NC(=O)[C@H](CCN)NC1=O [Compound 2917] ({CH2CO}-[Ala(morpholin-4-yl)]Y(Carboxymethyl)D[Phe(3-CF3)][Phe(4-COOH)][Bip][Phe(4-COOH)][Orn][dL][Dab][Cha][Val(3-OH)]SC[Dab][PEG4]-{NH(CH2)14COOH}; thioether N-14)
22.4	CC(C)C[C@H]1NC(=O)[C@H](CCCN)NC(=O)[C@H](Cc2ccc(C(=O)O)cc2)NC(=O)[C@H](Cc2ccc(-c3ccccc3)cc2)NC(=O)[C@H](Cc2ccc(C(=O)O)cc2)NC(=O)[C@H](Cc2cccc(C(F)(F)F)c2)NC(=O)[C@H](CC(=O)O)NC(=O)[C@H](Cc2ccc(OCC(=O)O)cc2)NC(=O)[C@H](CN2CCOCC2)NC(=O)CSC[C@@H](C(=O)N[C@@H](CCN)C(=O)NCCCCCCCCCCCCC(=O)O)NC(=O)[C@H](CO)NC(=O)[C@H](C(C)(C)O)NC(=O)[C@H](CC2CCCCC2)NC(=O)[C@H](CCN)NC1=O [Compound 2918] ({CH2CO}-[Ala(morpholin-4-yl)]Y(Carboxymethyl)D[Phe(3-CF3)][Phe(4-COOH)][Bip][Phe(4-COOH)][Orn][dL][Dab][Cha][Val(3-OH)]SC[Dab]-{NH(CH2)12COOH}; thioether N-14)
372	CC(C)C[C@H]1NC(=O)[C@H](CCCN)NC(=O)[C@H](Cc2ccc(C(=O)O)cc2)NC(=O)[C@H](Cc2ccc(-c3ccccc3)cc2)NC(=O)[C@H](Cc2ccc(C(=O)O)cc2)NC(=O)[C@H](Cc2cccc(C(F)(F)F)c2)NC(=O)[C@H](CC(=O)O)NC(=O)[C@H](Cc2ccc(OCC(=O)O)cc2)NC(=O)[C@H](CN2CCOCC2)NC(=O)CSC[C@@H](C(=O)N[C@@H](CCN)C(=O)NCCCCCCCCCCCCCCC(=O)O)NC(=O)[C@H](CO)NC(=O)[C@H](C(C)(C)O)NC(=O)[C@H](CC2CCCCC2)NC(=O)[C@H](CCN)NC1=O [Compound 2919] ({CH2CO}-[Ala(morpholin-4-yl)]Y(Carboxymethyl)D[Phe(3-CF3)][Phe(4-COOH)][Bip][Phe(4-COOH)][Orn][dL][Dab][Cha][Val(3-OH)]SC[Dab]-{NH(CH2)14COOH}; thioether N-14)
25.7	CC(C)C[C@H]1NC(=O)[C@H](CCCN)NC(=O)[C@H](Cc2ccc(C(=O)O)cc2)NC(=O)[C@H](Cc2ccc(-c3ccccc3)cc2)NC(=O)[C@H](Cc2ccc(C(=O)O)cc2)NC(=O)[C@H](Cc2cccc(C(F)(F)F)c2)NC(=O)[C@H](CC(=O)O)NC(=O)[C@H](Cc2ccc(OCC(=O)O)cc2)NC(=O)[C@H](CN2CCOCC2)NC(=O)CSC[C@@H](C(=O)N[C@@H](CCN)C(=O)NCCOCCOCC(=O)NCCOCCOCC(=O)NCCCCCCCCCCCCC(=O)O)NC(=O)[C@H](CC(=O)O)NC(=O)[C@H](C(C)(C)O)NC(=O)[C@H](CC2CCCCC2)NC(=O)[C@H](CCN)NC1=O [Compound 2920] ({CH2CO}-[Ala(morpholin-4-yl)]Y(Carboxymethyl)D[Phe(3-CF3)][Phe(4-COOH)][Bip][Phe(4-COOH)][Orn][dL][Dab][Cha][Val(3-OH)]DC[Dab][AEEA][AEEA]-{NH(CH2)12COOH}; thioether N-14)
20.5	CC(C)C[C@H]1NC(=O)[C@H](CCCN)NC(=O)[C@H](Cc2ccc(C(=O)O)cc2)NC(=O)[C@H](Cc2ccc(-c3ccccc3)cc2)NC(=O)[C@H](Cc2ccc(C(=O)O)cc2)NC(=O)[C@H](Cc2cccc(C(F)(F)F)c2)NC(=O)[C@H](CC(=O)O)NC(=O)[C@H](Cc2ccc(OCC(=O)O)cc2)NC(=O)[C@H](CN2CCOCC2)NC(=O)CSC[C@@H](C(=O)N[C@@H](CCN)C(=O)NCCCCCCCCCCCCC(=O)O)NC(=O)[C@H](CC(=O)O)NC(=O)[C@H](C(C)(C)O)NC(=O)[C@H](CC2CCCCC2)NC(=O)[C@H](CCN)NC1=O [Compound 2921] ({CH2CO}-[Ala(morpholin-4-yl)]Y(Carboxymethyl)D[Phe(3-CF3)][Phe(4-COOH)][Bip][Phe(4-COOH)][Orn][dL][Dab][Cha][Val(3-OH)]DC[Dab]-{NH(CH2)12COOH}; thioether N-14)
423	CC(C)C[C@H]1NC(=O)[C@H](CCCN)NC(=O)[C@H](Cc2ccc(C(=O)O)cc2)NC(=O)[C@H](Cc2ccc(-c3ccccc3)cc2)NC(=O)[C@H](Cc2ccc(C(=O)O)cc2)NC(=O)[C@H](Cc2cccc(C(F)(F)F)c2)NC(=O)[C@H](CC(=O)O)NC(=O)[C@H](Cc2ccc(OCC(=O)O)cc2)NC(=O)[C@H](C)NC(=O)CSC[C@@H](C(=O)N[C@@H](CCN)C(=O)NCCCCCCCCCCCCCCC(=O)O)NC(=O)[C@H](Cc2c[nH]cn2)NC(=O)[C@H](C(C)(C)O)NC(=O)[C@H](CC2CCCCC2)NC(=O)[C@H](CCN)NC1=O [Compound 2922] ({CH2CO}-AY(Carboxymethyl)D[Phe(3-CF3)][Phe(4-COOH)][Bip][Phe(4-COOH)][Orn][dL][Dab][Cha][Val(3-OH)]HC[Dab]-{NH(CH2)14COOH}; thioether N-14)
22.5	CC(C)C[C@H]1NC(=O)[C@H](CCCN)NC(=O)[C@H](Cc2ccc(C(=O)O)cc2)NC(=O)[C@H](Cc2ccc(-c3ccccc3)cc2)NC(=O)[C@H](Cc2ccc(C(=O)O)cc2)NC(=O)[C@H](Cc2cccc(C(F)(F)F)c2)NC(=O)[C@H](CC(=O)O)NC(=O)[C@H](Cc2ccc(OCC(=O)O)cc2)NC(=O)[C@H](C)NC(=O)CSC[C@@H](C(=O)N[C@@H](CCN)C(=O)NCCCCCCCCCCCCC(=O)O)NC(=O)[C@H](Cc2c[nH]cn2)NC(=O)[C@H](C(C)(C)O)NC(=O)[C@H](CC2CCCCC2)NC(=O)[C@H](CCN)NC1=O [Compound 2923] ({CH2CO}-AY(Carboxymethyl)D[Phe(3-CF3)][Phe(4-COOH)][Bip][Phe(4-COOH)][Orn][dL][Dab][Cha][Val(3-OH)]HC[Dab]-{NH(CH2)12COOH}; thioether N-14)
16.8	Cc1cccc(C[C@@H]2NC(=O)[C@H](CC(=O)O)NC(=O)[C@H](Cc3ccc(OCC(=O)O)cc3)NC(=O)[C@H](Cc3ccncc3)NC(=O)CSC[C@@H](C(=O)N[C@@H](CCN)C(=O)NCCCCCCCCCCC(=O)O)NC(=O)[C@H]([C@@H](C)O)NC(=O)[C@H](C(C)C)NC(=O)[C@H](CC3CCCCC3)NC(=O)[C@H](CCN)NC(=O)[C@@H](CC(C)C)NC(=O)[C@H](CCCN)NC(=O)[C@H](Cc3ccc(OCC(=O)O)cc3)NC(=O)[C@H](Cc3ccc(-c4ccccc4)cc3)NC(=O)[C@H](Cc3ccc(OCC(=O)O)cc3)NC2=O)c1 [Compound 2924] ({CH2CO}-[4Pal]Y(Carboxymethyl)D[Phe(3-Me)]Y(Carboxymethyl)[Bip]Y(Carboxymethyl)[Orn][dL][Dab][Cha]VTC[Dab][Aun]-OH; thioether N-14)
32.9	CC[C@@H]1NC(=O)CSC[C@@H](C(=O)N[C@@H](CCN)C(=O)NCCOCCOCCOCCOCCC(=O)NCCCCCCCCCCCCC(=O)O)NC(=O)[C@H](Cc2c[nH]cn2)NC(=O)[C@H](C(C)(C)O)NC(=O)[C@H](CC2CCCCC2)NC(=O)[C@H](CCN)NC(=O)[C@@H](CC(C)C)NC(=O)[C@H](CCCN)NC(=O)[C@H](Cc2ccc(C(=O)O)cc2)NC(=O)[C@H](Cc2ccc(-c3ccccc3)cc2)NC(=O)[C@H](Cc2ccc(C(=O)O)cc2)NC(=O)[C@H](Cc2cccc(C(F)(F)F)c2)NC(=O)[C@H](CC(=O)O)NC(=O)[C@H](Cc2ccc(OCC(=O)O)cc2)NC1=O [Compound 2926] ({CH2CO}-[Abu]Y(Carboxymethyl)D[Phe(3-CF3)][Phe(4-COOH)][Bip][Phe(4-COOH)][Orn][dL][Dab][Cha][Val(3-OH)]HC[Dab][PEG4]-{NH(CH2)12COOH}; thioether N-14)

SMILES	IC50 [nM]
Cc1cccc(C[C@@H]2NC(=O)[C@H](CC(=O)O)NC(=O)[C@H](Cc3ccc(OCC(=O)O)cc3)NC(=O)[C@H](Cc3ccc(C(N)=O)cc3)NC(=O)CSC[C@@H](C(=O)N[C@@H](CCN)C(=O)NCCCCCCCCCCC(=O)O)NC(=O)[C@H]([C@@H](C)O)NC(=O)[C@H](C(C)C)NC(=O)[C@H](CC3CCCCC3)NC(=O)[C@H](CCN)NC(=O)[C@@H](CC(C)C)NC(=O)[C@H](CCCN)NC(=O)[C@H](Cc3ccc(OCC(=O)O)cc3)NC(=O)[C@H](Cc3ccc(-c4ccccc4)cc3)NC(=O)[C@H](Cc3ccc(OCC(=O)O)cc3)NC2=O)c1 [Compound 2925] ({CH2CO}-[Phe(4-CONH2)]Y(Carboxymethyl)D[Phe(3-Me)]Y(Carboxymethyl)[Bip]Y(Carboxymethyl)[Orn][dL][Dab][Cha]VTC[Dab][Aun]-OH; thioether N-14)	36.6
